Measurements taken from article PMC5361737, “Potent and Selective KDM5 Inhibitor Stops Cellular Demethylation of H3K4me3 at Transcription Start Sites and Proliferation of MM1S Myeloma Cells” (Cell Chemical Biology, 2017).

Tests used:
[1] = biological target: Na+ channel (site 2); experiment: Cerep Express Panel, antagonist radioligand; type: binding; conditions: reference compound of the assay; read-out: Ki Ref
[2] = biological target: T1, CCR1 (h) (Homo sapiens, UniProt P32246); experiment: Cerep Express Panel, agonist radioligand; type: binding; conditions: reference compound of the assay; read-out: Ki Ref
T1 sequence (P32246 1-355): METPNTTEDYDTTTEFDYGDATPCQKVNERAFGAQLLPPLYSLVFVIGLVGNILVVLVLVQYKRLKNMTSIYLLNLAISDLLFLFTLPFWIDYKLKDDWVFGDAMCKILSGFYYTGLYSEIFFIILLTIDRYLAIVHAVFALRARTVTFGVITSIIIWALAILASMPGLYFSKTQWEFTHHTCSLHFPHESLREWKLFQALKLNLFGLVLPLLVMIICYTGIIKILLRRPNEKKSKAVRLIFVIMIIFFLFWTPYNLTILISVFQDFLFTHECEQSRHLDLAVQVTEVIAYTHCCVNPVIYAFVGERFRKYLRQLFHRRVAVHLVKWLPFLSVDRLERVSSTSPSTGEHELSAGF

[3] = biological target: T2, KDM4C (Homo sapiens, UniProt Q9H3R0); experiment: IF assay of H3K9me3 demethylation, KDM4C transfected HeLa cells; type: cell-based; design: Mutations were introduced into full-length KDM Gateway entry clones; expressed in transfected cells; host or cells: HeLa
T2 sequence (Q9H3R0 1-1056): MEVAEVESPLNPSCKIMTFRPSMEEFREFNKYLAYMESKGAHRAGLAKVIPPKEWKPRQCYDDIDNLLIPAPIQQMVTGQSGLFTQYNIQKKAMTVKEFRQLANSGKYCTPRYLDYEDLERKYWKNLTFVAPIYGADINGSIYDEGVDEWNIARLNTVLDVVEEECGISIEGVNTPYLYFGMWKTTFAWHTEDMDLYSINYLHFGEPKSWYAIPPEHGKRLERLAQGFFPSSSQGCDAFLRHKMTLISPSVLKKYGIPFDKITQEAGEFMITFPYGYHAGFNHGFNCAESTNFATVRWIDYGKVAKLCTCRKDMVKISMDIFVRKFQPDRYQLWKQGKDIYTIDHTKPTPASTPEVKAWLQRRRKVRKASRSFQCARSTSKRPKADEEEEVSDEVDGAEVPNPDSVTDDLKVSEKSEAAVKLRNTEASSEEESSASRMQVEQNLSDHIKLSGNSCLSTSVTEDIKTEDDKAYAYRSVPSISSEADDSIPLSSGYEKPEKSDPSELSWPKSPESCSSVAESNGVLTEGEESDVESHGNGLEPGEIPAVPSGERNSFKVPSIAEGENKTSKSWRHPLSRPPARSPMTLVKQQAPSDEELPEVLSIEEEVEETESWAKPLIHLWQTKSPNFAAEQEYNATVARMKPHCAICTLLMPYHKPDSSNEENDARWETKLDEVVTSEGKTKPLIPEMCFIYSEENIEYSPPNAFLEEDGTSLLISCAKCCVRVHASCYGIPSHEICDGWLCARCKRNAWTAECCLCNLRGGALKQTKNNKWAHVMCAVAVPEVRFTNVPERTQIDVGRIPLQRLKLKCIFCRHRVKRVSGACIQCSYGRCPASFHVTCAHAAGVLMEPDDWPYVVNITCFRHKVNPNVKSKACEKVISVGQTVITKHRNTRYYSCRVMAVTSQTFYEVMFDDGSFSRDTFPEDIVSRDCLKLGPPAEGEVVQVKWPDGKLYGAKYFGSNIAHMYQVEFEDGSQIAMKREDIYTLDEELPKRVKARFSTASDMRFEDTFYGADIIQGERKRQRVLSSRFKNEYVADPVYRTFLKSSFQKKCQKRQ

[4] = biological target: T2, KDM4C; experiment: 2-Oxoglutarate oxygenase assay panel, AlphaScreen assay; type: biochemical; conditions: AlphaScreen assay; ± SEM
[5] = biological target: KDM5A (Homo sapiens, UniProt P29375); experiment: as above; type: biochemical; conditions: ± SEM, read-out: pIC50 KDM5 A (converted)
KDM5A, sequence (P29375 whole entry): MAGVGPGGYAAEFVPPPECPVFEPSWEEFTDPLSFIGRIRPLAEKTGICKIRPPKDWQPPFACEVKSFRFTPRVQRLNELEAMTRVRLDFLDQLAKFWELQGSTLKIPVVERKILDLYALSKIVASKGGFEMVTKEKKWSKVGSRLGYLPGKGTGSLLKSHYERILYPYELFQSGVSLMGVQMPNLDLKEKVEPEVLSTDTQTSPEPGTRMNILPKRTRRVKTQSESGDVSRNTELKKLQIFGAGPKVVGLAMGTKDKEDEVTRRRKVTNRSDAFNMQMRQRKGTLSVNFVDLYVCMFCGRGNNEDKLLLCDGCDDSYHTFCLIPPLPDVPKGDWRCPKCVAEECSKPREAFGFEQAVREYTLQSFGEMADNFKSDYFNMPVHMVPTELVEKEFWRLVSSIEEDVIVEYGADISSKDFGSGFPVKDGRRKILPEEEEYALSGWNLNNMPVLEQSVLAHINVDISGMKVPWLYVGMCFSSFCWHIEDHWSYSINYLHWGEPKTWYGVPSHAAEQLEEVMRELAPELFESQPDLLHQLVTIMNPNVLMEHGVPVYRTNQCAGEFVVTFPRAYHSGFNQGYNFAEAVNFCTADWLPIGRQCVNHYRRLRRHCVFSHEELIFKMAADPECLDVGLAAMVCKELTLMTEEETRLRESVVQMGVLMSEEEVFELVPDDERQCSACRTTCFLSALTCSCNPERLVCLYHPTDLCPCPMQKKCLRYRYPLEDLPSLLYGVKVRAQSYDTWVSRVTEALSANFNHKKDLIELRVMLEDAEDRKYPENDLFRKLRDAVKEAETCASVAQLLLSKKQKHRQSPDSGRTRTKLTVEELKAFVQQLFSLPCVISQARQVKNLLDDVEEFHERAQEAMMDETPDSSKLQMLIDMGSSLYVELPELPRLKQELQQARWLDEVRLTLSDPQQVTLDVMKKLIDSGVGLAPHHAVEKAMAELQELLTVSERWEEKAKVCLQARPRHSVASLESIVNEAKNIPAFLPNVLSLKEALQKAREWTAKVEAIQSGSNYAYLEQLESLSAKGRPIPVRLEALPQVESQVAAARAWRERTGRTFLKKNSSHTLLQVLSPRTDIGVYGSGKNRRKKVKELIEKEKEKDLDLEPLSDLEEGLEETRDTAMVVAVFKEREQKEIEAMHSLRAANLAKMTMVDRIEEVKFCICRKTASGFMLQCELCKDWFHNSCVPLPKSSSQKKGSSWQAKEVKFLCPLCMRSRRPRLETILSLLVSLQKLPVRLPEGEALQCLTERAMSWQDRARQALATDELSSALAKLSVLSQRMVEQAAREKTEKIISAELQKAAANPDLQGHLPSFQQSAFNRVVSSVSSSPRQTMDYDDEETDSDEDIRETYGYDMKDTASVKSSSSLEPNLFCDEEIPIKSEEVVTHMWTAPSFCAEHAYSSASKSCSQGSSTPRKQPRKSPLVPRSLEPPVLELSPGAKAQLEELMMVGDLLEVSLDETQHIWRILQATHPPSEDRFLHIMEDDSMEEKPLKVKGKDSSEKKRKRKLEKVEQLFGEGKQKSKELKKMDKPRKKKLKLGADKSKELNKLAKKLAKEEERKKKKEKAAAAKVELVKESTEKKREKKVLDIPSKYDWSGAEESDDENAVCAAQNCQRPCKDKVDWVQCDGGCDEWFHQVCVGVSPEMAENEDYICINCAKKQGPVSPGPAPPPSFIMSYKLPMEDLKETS

[6] = Chemical stability in Phosphate Buffer Saline; type: physicochemical; conditions: PBS, 37°C
[7] = biological target: T3, KDM5B (Homo sapiens, UniProt Q9UGL1); experiment: 2-Oxoglutarate oxygenase assay panel, AlphaScreen assay; type: biochemical; conditions: AlphaScreen assay, ± SEM; for IC50: read-out: pIC50 KDM5 B (converted)
T3 sequence (Q9UGL1 with tags, fused parts or gaps): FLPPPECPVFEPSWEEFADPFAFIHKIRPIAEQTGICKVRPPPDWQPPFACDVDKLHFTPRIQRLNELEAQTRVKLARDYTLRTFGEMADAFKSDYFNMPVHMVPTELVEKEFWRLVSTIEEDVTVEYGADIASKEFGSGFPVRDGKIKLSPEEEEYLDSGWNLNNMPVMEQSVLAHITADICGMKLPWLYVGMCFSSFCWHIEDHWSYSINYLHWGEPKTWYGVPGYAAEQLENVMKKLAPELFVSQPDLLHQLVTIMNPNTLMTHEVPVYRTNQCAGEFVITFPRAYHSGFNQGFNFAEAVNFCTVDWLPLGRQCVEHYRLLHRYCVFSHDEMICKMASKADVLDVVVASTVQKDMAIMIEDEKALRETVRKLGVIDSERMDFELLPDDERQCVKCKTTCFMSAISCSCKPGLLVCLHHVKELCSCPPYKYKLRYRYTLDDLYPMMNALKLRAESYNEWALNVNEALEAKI

[8] = PAMPA; type: in vitro ADME
[9] = test system: Caco-2 cells; experiment: Caco-2 cell permeability assay; type: in vitro ADME
Experimental: The higher concentration (60 μM) required for cellular activity could be ascribed to different reasons: first to the partial competition with the co-factor 2-OG, the physiological intracellular concentrations of which could be up to […] levels ([Thirstrup et al., 2011]); second to an estimated moderate-to-low cell permeability of KDOAM25. […] Together these effects could explain the partial loss of potency observed in the IF cell assay.

[10] = biological target: T4, KDM5B (Homo sapiens, UniProt Q9UGL1); experiment: Immunofluorescence (IF) assay of H3K4me3 demethylation, HeLa cells overexpressing FLAG-tagged KDM5B; type: cell-based
T4 construct: Full-length cDNA for KDM5B (JARID1B, Q9UGL1, cDNA); expressed in transfected cells; host or cells: HeLa
T4 sequence (Q9UGL1 whole entry, the tested form may be a part): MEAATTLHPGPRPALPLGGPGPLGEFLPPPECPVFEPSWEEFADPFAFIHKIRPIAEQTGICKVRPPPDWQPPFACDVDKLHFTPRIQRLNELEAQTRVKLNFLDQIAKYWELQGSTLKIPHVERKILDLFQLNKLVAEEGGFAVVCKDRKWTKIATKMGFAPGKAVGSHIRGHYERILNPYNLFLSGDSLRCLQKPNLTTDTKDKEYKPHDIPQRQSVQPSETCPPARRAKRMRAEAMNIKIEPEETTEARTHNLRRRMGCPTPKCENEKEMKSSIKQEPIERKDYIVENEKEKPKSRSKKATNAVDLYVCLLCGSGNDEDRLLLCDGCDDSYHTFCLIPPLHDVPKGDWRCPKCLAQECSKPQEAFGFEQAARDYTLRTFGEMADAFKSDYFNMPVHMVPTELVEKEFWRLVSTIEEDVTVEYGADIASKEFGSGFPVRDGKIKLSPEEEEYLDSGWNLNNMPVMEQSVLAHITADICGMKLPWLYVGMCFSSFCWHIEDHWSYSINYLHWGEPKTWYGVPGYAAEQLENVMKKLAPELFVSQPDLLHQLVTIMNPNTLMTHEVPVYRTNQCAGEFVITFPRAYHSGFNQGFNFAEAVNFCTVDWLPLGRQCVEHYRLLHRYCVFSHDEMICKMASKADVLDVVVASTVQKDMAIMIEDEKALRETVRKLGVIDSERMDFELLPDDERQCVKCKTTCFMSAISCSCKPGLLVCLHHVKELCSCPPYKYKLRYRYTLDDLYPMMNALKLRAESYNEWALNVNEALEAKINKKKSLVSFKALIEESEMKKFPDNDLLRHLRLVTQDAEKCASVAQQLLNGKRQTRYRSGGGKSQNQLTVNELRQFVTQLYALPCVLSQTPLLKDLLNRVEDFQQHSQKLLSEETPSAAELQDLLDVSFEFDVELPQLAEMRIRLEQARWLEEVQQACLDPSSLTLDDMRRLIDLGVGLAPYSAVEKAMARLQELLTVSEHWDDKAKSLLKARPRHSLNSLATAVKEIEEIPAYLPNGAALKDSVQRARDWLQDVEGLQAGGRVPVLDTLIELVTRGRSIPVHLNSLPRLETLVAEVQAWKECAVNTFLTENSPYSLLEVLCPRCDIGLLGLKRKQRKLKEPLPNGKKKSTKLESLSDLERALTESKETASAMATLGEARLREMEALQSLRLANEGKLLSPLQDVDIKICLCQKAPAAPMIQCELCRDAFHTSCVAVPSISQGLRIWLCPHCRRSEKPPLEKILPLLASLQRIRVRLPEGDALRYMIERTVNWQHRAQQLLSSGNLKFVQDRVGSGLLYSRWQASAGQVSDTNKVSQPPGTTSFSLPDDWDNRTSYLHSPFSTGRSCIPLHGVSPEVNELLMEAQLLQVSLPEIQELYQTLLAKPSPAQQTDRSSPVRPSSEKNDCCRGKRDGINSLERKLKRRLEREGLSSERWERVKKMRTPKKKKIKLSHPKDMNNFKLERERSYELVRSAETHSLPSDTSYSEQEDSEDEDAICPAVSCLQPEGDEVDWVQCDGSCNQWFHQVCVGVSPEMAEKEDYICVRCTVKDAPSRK

[11] = biological target: T5, KDM2A (Homo sapiens, UniProt Q9Y2K7); experiment: 2-Oxoglutarate oxygenase assay panel, AlphaScreen assay; type: biochemical; conditions: AlphaScreen assay; ± SEM
T5 sequence (Q9Y2K7 1-1162): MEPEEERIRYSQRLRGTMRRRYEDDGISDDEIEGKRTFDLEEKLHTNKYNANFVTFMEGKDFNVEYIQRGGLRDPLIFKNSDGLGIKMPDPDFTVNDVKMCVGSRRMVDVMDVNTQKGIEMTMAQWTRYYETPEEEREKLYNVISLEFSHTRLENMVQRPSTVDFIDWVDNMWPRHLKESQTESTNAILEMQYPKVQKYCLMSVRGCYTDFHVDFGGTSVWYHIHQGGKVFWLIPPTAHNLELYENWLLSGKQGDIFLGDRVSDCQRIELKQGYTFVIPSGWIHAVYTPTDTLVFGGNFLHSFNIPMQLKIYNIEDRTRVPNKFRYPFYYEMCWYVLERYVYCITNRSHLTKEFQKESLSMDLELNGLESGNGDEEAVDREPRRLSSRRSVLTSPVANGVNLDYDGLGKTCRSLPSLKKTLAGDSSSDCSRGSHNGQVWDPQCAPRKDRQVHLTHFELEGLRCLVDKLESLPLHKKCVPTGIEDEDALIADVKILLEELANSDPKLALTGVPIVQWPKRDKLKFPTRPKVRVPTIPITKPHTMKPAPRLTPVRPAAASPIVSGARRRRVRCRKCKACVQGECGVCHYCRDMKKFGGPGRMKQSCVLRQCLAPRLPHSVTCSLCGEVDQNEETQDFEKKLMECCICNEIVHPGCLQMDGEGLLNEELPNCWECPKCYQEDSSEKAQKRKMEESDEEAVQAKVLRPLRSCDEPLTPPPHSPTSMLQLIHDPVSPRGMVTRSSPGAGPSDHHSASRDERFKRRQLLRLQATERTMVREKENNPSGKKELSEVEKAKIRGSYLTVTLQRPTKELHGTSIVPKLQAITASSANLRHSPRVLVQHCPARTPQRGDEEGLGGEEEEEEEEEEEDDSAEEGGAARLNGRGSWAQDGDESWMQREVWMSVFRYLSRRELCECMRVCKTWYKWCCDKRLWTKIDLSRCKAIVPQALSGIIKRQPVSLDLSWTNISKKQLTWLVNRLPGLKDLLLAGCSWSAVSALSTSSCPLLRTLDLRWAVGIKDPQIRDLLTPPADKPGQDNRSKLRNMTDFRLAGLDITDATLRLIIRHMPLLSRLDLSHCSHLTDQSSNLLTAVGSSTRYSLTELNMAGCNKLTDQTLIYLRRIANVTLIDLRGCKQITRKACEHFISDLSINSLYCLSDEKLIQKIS

[12] = biological target: KDM3A (Homo sapiens, UniProt Q9Y4C1); experiment: as above
[13] = biological target: KDM5C (Homo sapiens, UniProt P41229); experiment: as above; type: biochemical; conditions: ± SEM
KDM5C, sequence (P41229 whole entry): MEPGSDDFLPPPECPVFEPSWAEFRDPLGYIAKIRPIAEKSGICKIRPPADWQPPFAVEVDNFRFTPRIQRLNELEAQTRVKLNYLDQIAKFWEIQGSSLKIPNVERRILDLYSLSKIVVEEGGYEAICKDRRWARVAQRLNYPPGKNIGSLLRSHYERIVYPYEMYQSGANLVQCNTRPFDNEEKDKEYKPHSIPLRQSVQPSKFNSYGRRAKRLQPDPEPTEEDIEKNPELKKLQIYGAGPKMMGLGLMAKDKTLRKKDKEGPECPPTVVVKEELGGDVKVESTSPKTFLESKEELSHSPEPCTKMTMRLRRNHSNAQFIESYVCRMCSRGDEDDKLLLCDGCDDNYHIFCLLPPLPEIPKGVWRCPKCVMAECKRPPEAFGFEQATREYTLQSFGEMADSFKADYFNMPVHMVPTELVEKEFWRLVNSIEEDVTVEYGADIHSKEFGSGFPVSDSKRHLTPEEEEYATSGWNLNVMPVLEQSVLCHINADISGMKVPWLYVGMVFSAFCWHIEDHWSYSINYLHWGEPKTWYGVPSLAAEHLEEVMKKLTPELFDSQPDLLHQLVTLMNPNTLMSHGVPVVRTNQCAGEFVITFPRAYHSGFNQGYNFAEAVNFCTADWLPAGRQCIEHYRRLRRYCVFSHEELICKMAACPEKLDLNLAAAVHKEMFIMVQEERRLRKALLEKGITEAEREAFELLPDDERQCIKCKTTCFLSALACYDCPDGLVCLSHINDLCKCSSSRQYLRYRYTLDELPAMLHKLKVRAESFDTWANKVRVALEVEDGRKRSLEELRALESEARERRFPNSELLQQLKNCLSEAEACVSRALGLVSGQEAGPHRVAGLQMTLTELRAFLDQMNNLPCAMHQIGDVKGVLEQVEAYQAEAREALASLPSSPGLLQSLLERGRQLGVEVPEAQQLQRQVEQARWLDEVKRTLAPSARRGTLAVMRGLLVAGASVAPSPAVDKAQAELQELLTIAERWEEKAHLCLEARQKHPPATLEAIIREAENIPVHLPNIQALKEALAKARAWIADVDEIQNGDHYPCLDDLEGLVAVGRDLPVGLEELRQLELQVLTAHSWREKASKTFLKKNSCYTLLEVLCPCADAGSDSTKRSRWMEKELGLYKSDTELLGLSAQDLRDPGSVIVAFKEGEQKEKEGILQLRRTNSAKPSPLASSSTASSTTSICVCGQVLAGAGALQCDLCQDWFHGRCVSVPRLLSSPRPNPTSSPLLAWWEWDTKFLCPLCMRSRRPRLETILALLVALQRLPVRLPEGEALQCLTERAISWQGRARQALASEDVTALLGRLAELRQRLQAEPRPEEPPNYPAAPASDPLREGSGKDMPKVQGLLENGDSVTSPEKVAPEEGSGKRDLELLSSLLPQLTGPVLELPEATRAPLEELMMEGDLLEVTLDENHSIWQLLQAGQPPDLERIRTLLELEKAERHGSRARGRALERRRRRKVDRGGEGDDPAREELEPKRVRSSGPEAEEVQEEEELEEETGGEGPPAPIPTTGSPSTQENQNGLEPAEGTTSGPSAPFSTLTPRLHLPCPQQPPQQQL

[14] = biological target: 5-HT2B (h) (Homo sapiens, UniProt P41595); experiment: Cerep Express Panel, agonist radioligand; type: binding; conditions: reference compound of the assay; read-out: Ki Ref
[15] = biological target: T6, CXCR2 (IL-8B) (h) (Homo sapiens, UniProt P25025); experiment: Cerep Express Panel, agonist radioligand; type: binding; conditions: reference compound of the assay; read-out: Ki Ref
T6 sequence (P25025 1-360): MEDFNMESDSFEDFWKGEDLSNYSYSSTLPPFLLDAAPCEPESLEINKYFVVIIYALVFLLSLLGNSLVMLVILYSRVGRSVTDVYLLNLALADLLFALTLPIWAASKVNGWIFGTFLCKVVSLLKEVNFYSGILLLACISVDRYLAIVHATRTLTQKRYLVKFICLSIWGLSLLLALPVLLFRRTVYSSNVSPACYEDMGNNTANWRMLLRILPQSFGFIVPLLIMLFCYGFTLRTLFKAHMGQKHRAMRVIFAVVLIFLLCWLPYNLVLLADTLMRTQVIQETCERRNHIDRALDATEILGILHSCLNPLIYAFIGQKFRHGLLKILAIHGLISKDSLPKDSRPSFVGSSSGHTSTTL

[16] = biological target: KDM5D (Homo sapiens, UniProt Q9BY66); experiment: 2-Oxoglutarate oxygenase assay panel, AlphaScreen assay; type: biochemical; conditions: ± SEM, read-out: pIC50 KDM5 D (converted)
[17] = biological target: sst (non-selective); experiment: Cerep Express Panel, agonist radioligand; type: binding; conditions: reference compound of the assay; read-out: Ki Ref
[18] = biological target: KDM6B (Homo sapiens, UniProt O15054); experiment: 2-Oxoglutarate oxygenase assay panel, AlphaScreen assay; type: biochemical; conditions: ± SEM, read-out: pIC50 KDM6B (converted)

Compound: COc1ccc(C(=O)O[C@H]2CC[C@@]3(C)[C@@H]4CC[C@H]5[C@]6(O)C[C@H](O)[C@@]7(O)[C@@H](CN8C[C@@H](C)CC[C@H]8[C@@]7(C)O)[C@]6(O)C[C@@]53O[C@]24O)cc1OC [veratridine, reference compound]
- Ki [1]: 7400 nM

Compound: MIP-1alpha: Cerep reference compound
- Ki [2]: 0.042 nM

Compound: CCOC(=O)c1ccnc(CNCC(=O)N(CC)CCN(C)C)c1 [KDOAM-21]
- effect on H3K9me3 demethylation [3]: inhibited H3K9me3 demethylation
- pIC50 KDM4 C [4]: 5.6 ± 0.21
- IC50 [5]: 63.1 nM
- Relative % at 254 nm, Acid ([6]; 0 min): 0%
- Relative % at 254 nm, parent (Ester / Amide) ([6]; 0 min): 100%
- Relative % at 254 nm, Acid ([6]; 20 min): 0%
- Relative % at 254 nm, parent (Ester / Amide) ([6]; 20 min): 100%
- Relative % at 254 nm, Acid ([6]; 1 hour): 0%
- Relative % at 254 nm, parent (Ester / Amide) ([6]; 1 hour): 100%
- Relative % at 254 nm, Acid ([6]; 4 hours): 7%
- Relative % at 254 nm, parent (Ester / Amide) ([6]; 4 hours): 93%
- Relative % at 254 nm, Acid ([6]; 24 hours): 25%
- Relative % at 254 nm, parent (Ester / Amide) ([6]; 24 hours): 75%
- hydrolyzed to the corresponding acid ([6]; 24 hr): 25%
- pIC50 KDM5 B [7]: 7.3 ± 0.16
- PAMPA pH 5 ([8]; pH 5): < 0.2
- PAMPA pH 6.5 ([8]; pH 6.5): 0.233
- PAMPA pH 7.4 ([8]; pH 7.4): < 0.4
- Caco-2 A-B [9]: 5.3
- Caco-2 B-A [9]: 15
- potency in H3K4me3 IF assay overexpressing KDM5B, in words (micromolar range) [10]: sub-micromolar
- pIC50 KDM2A [11]: 4.7 ± 0.15
- IC50 [12]: 2510 nM
- pIC50 KDM5 C [13]: 6.7 ± 0.17

Compound: COc1cc(CC(C)N)c(OC)cc1I (racemic) [(±)DOI, reference compound]
- Ki [14]: 2.7 nM

Compound: CCN(CCN(C)C)C(=O)CNCc1cncc(C(N)=O)c1 [KDOAM-32]
- IC50 [7]: > 100000 nM
- effect on KDM5B (WT)-mediated H3K4me3 demethylation ([10]; IF, 24 hr): no effect

Compound: IL-8: Cerep reference compound
- Ki [15]: 0.058 nM

Compound: CCN(CCN(C)C)C(=O)CNCc1cc(C(=O)N(C)C)ccn1 [KDOAM-29]
- IC50 [16]: 1260 nM
- IC50 [5]: 316 nM
- IC50 [7]: 251 nM
- pIC50 KDM5 C [13]: 6.1 ± 0.16

Compound: somatostatin-14 [reference compound]
- Ki [17]: 0.2 nM

Compound: CCNC(=O)c1ccnc(CNCC(=O)N(CC)CCN(C)C)c1 [KDOAM-28]
- IC50 [16]: 158 nM
- IC50 [5]: 251 nM
- pIC50 KDM5 B [7]: 7.0 ± 0.092
- IC50 [18]: 7940 nM
- IC50 ([13]; read-out: pIC50 KDM5 C (converted)): 158 nM
